The values that follow come from patent US20230357179A1, “RAF KINASE INHIBITORS AND METHODS OF USE THEREOF” (Deciphera Pharmaceuticals, LLC, priority 2021, published 2023).

For orientation: pIC50 means the IC50 on a negative log10 scale, so that one unit is a factor of ten.

The target of assay [1] is T1, A-Raf kinase (Homo sapiens, UniProt P10398, Y301D/Y302D).
T1 construct: purchased Sigma
In words: Biochemical assay for A-Raf.1 (coupled pyruvate kinase/lactate dehydrogenase). The following applies: read-out: ARAF.1 IC50. An outline of the steps:
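A-Raf (5.55 nM) phosphorylating 30.1 nM MEK with 1 mM ATP was monitored by pyruvate kinase/lactate dehydrogenase-coupled NADH oxidation at 340 nm for 6 h at 30° C, in pH 7.5 Tris buffer with 15 mM MgCl2, 1% DMSO. Rates from 4–5 h gave percent inhibition; IC50 by four-parameter fit.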

For assay [2], the target named is T2, B-Raf kinase (Homo sapiens, UniProt P15056).
T2 construct: GST (N); purchased Sigma
In words: Biochemical assay for B-Raf.1 (coupled pyruvate kinase/lactate dehydrogenase). The following applies: read-out: BRAF.1 IC50. An outline of the steps:
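NADH oxidation followed at 340 nm in a pyruvate kinase/lactate dehydrogenase-coupled assay with 0.13 nM B-Raf, 30.1 nM MEK substrate, 1 mM ATP, pH 7.5 Tris buffer, 1% DMSO. Monitored 6 h at 30 °C; rate taken from 4–5 h. IC50 from four-parameter sigmoidal fit.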

In assay [3] the target is T3, C-Raf kinase (Homo sapiens, UniProt P04049, Y340D/Y341D).
T3 construct: Y340D,; GST (N); purchased Sigma
As to the kind of experiment: Biochemical assay for C-Raf.1 (coupled pyruvate kinase/lactate dehydrogenase). The following applies: read-out: CRAF.1 IC50. An outline of the steps:
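C-Raf (0.43 nM) with MEK 30.1 nM and 1 mM ATP in Tris pH 7.5/MgCl2 buffer, activity coupled via PK/LDH to NADH oxidation (A340), 6 h at 30° C. Rates from 4–5 h window converted to % inhibition versus controls; IC50 by four-parameter fit, 1% DMSO.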

In assay [4] the target is T4, B-Raf (V600E) kinase (Homo sapiens, UniProt P15056, V600E).
T4 construct: B-Raf (V600E) residues 416-766 with a; GST (N); purchased SignalChem
As to the kind of experiment: Biochemical assay for B-Raf (V600E).1 (coupled pyruvate kinase/lactate dehydrogenase). Particulars: read-out: BRAF V600E.1 IC50. The procedure, abridged: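 0.03 nM B-Raf(V600E) phosphorylating 30.1 nM MEK at 1 mM ATP, pH 7.5, coupled to PK/LDH, with NADH oxidation followed at 340 nm for 6 h at 30 °C. Rates taken from the 3-4 h window. IC50 from a four-parameter fit of percent inhibition.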

The test system of assay [5] is Miapaca-2 cells. In words: MiaPaca-2 cell proliferation assay (1), resazurin, 96-well. Particulars: Homo sapiens, MIA PaCa-2, inhibition of cell proliferation. In kind it is cell-based. The method, then:
MiaPaca-2 Cell Proliferation Assay (1)
Miapaca-2 cells (catalog #CRL-1420) are obtained from the American Type Culture Collect (ATTC, Manassas, VA). Briefly, cells were grown in DMEM supplemented with 10% characterized fetal bovine serum (Invitrogen, Carlsbad, CA), 2.5% New Zealand sourced horse serum and 1% Penicillin/Streptomycin/L-Glutamine at 37° C., 5% CO2, and 95% humidity. Cells are expanded until reaching 70-95% confluency at which point they are subcultured or harvested for assay use. A serial dilution of test compound is dispensed into a 96-well black clear bottom plate in triplicate. Three thousand cells are added per well in 200 μL complete growth medium in the 96-well plate. Plates are incubated for 67-72 hours at 37° C., 5% CO2, and 95% humidity. At the end of the incubation, 40 μL of a 440 μM solution of resazurin (Sigma, St. Louis, MO) in PBS is added to each well of the plate and plates are incubated for an additional 5-6 hours at 37° C., 5% CO2, and 95% humidity. Plates are read on a Synergy2 or equivalent reader (Biotek, Winooski VT) using an excitation of 540 nm and an emission of 600 nm. Data is analyzed using Prism software (GraphPad, San Diego, CA) to calculate IC50 values.

pIC50: −log10 of the molar value.

T3 sequence (P04049 307-648 Y340D/Y341D): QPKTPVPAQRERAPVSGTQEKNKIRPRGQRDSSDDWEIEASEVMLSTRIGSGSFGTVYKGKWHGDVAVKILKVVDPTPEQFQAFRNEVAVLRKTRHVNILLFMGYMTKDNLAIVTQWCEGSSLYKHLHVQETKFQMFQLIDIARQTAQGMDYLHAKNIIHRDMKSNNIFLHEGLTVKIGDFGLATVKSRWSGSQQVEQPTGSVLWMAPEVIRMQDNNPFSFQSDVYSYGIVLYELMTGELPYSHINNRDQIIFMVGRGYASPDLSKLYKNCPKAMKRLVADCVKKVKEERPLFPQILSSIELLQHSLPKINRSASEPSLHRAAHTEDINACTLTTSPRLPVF
T4 sequence (P15056 416-766 V600E): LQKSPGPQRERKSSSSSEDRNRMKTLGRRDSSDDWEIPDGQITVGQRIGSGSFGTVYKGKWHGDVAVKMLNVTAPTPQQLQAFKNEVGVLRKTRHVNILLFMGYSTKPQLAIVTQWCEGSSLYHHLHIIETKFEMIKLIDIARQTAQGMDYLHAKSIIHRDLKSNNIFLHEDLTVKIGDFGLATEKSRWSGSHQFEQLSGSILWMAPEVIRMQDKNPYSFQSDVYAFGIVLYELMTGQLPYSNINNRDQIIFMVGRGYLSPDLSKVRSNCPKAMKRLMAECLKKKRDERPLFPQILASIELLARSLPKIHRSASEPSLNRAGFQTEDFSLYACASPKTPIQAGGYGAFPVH
T1 sequence (P10398 with tags, fused parts or gaps Y301D/Y302D): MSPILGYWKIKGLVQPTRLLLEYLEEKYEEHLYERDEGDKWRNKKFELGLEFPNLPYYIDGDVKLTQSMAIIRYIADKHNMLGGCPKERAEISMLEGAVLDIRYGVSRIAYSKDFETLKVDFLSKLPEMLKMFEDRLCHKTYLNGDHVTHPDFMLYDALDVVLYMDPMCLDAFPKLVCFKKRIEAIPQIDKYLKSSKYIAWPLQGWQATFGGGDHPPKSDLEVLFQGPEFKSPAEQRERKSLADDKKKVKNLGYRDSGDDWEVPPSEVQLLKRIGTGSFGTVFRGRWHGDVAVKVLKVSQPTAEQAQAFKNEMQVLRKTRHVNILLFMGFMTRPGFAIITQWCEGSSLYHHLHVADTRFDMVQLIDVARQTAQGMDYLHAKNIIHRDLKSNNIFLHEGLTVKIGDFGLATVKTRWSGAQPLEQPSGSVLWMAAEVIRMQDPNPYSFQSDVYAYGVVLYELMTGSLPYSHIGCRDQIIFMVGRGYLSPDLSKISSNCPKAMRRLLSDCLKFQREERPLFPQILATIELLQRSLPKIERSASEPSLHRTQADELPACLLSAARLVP
T2 sequence (P15056 416-766): as the sequence (P15056 416-766 V600E) above, with E185V counted along it

For the molecule `Cc1ccc(NC(=O)Nc2cnn(CC(F)(F)F)c2)cc1-c1cc(OCCO)nc(N2CCOCC2)c1` [Example 45], the pIC50 was under 6.00 in assay [1]; under 6.00 in assay [2]; 6.30 to 7.00 in assay [3]; at least 7.00 in assay [4]; 5.00 to 6.00 in assay [5].
As for `Cc1ccc(NC(=O)Nc2cnn(C(C)(C)C)c2)cc1-c1cc(OCCO)nc(N2CCOCC2)c1` [Example 44], the pIC50 in assay [1] was under 6.00; in assay [2], 6.30 to 7.00; in assay [3], 6.30 to 7.00; in assay [4], at least 7.00; in assay [5], 5.00 to 6.00.
